In patent publication US11040028B2, “Penicinotam derivative, preparation method and use thereof” (OCEAN UNIVERSITY OF CHINA, priority 2017, dated 2021) one finds IC50 data, which are given here for 16 molecules.

Holding throughout (format): cell-based
The test system of test [1] is NF-κB. Nature of the test: Immunological activity test: inhibition of NF-κB activity. The following applies: initial concentration of 30 μM; a/b isomers given as first/second symbol; read-out: IC50 (μM), inhibitory activity against NF-κB. A digest of the protocol:
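Single-point testing at 30 μM preceded IC50 determination.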

In test [2] the test system is human dermal fibroblasts CCC-ESF-1. As to the kind of experiment: Anti-fibrosis activity test: inhibition of proliferation of human dermal fibroblasts CCC-ESF-1 (CCK-8). The following applies: Fibroblast; human dermal fibroblasts CCC-ESF-1, CCK-8, 48 hours. A digest of the protocol: (§1)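 A CCK-8 proliferation assay was run: cells at 2×10^4 cells/mL, adherent for 24 h, then incubated 48 h at 37° C with compound dilutions. A450 was recorded 2 h after CCK-8 addition and converted to percent inhibition versus blank for IC50 determination.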

In test [3] the test system is human hepatic stellate cells LX-2. Nature of the test: Anti-fibrosis activity test: inhibition of proliferation of human hepatic stellate cells LX-2 (CCK-8). The following applies: Homo sapiens, 48 h, human hepatic stellate cells LX-2, CCK-8, 48 hours. A digest of the protocol:
as §1

Test [4] has as its system human lung fibroblasts HFL1. Nature of the test: Anti-fibrosis activity test: inhibition of proliferation of human lung fibroblasts HFL1 (CCK-8). The following applies: Homo sapiens, HFL1, 48 h, human lung fibroblasts HFL1, CCK-8, 48 hours. A digest of the protocol:
as §1

The subject of test [5] is human embryonic lung fibroblast IMR-90. As to the kind of experiment: Anti-fibrosis activity test: inhibition of proliferation of human embryonic lung fibroblast IMR-90 (CCK-8). The following applies: human embryonic lung fibroblast IMR-90, CCK-8, 48 hours. A digest of the protocol: as §1
Test [6] relates to BHK-21 cells. As to the kind of experiment: Anti-fibrosis activity test: inhibition of BHK-21 cell proliferation (CCK-8). To be noted: Mesocricetus auratus, BHK-21, 48 h, CCK-8, 48 hours after administration. A digest of the protocol: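 Cells seeded at 2×10^4 cells/mL, allowed to adhere 24 hours, then exposed to graded compound concentrations in triplicate for 48 hours at 37° C, 5% CO2. CCK-8 added for 2 hours, absorbance read at 450 nm; inhibition versus blank control used to derive IC50. Pirfenidone served as positive control.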

Test [7] relates to cardiac fibroblast RAT-iCell-C002. Nature of the test: Anti-fibrosis activity test: inhibition of proliferation of cardiac fibroblast RAT-iCell-C002 (CCK-8). To be noted: Cardiac fibroblast, 48 h, cardiac fibroblast RAT-iCell-C002, CCK-8, 48 hours. A digest of the protocol: as §1
In test [8] the test system is mouse macrophages (RAW264.7). As to the kind of experiment: Lipopolysaccharide-induced NO secretion in macrophages (Griess). To be noted: Mus musculus, RAW264.7, 24 h, RAW264.7, LPS 1 μg/ml, a/b isomers given as first/second symbol, read-out: IC50 (μM), inhibition of lipopolysaccharide-induced NO secretion in macrophages. A digest of the protocol:
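Absorbance at 548 nm after Griess reagent addition to culture supernatant gave NO content; inhibition rate was derived relative to blank control. Cells were mouse RAW264.7 macrophages exposed to compounds and 1 μg/ml LPS for 24 hours.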

Test [9] concerns human fibrosarcoma cells HT-1080. Nature of the test: Anti-fibrosis activity test: inhibition of proliferation of human fibrosarcoma cells HT-1080 (CCK-8). To be noted: Homo sapiens, HT-1080, 48 h, human fibrosarcoma cells HT-1080, CCK-8, 48 hours. A digest of the protocol:
as §1

A value given as a limit tells only on which side of the number the result lay.

With `O=C1c2c(nc3c(Cl)cccc3c2O)-c2cccn21` [Compound 443b, 5-chloro-9-hydroxy-10H-pyrrolizino[1,2-b]quinolin-10-one], the IC50 in test [1] was 1 to 10 µM; in [2] it was 0.05 to 5 mM; in [3] it was 0.05 to 5 mM; in [4], 0.05 to 5 mM; in [5], 0.05 to 5 mM; in test [6], 0.05 to 5 mM. The half-maximal inhibitory concentration (IC50) in test [7] fell in the range of 0.05 to 5 mM; in test [8], 1 to 10 µM; in test [9], 0.05 to 5 mM.

Consider `O=C1c2c([nH]c3c(F)cccc3c2=O)-c2cccn21` [Compound 444a, 5-Fluoro-9H-pyrrolizino[1,2-b]quinoline-9,10(4H)-dione], for which the IC50 was 1 to 10 µM in [1]; 0.05 to 5 mM in [2]; 0.05 to 5 mM in [3]; 0.05 to 5 mM in test [4]; 0.05 to 5 mM in test [5]; 0.05 to 5 mM in test [6]. For the same molecule, the results for the IC50 in test [7], in test [8] and in test [9] were 0.05 to 5 mM, 0.1 to 1 µM and 0.05 to 5 mM, respectively.

Regarding `O=C1c2c(nc3c(F)cccc3c2O)-c2cccn21` [Compound 444b, 5-fluoro-9-hydroxy-10H-pyrrolizino[1,2-b]quinolin-10-one], the IC50 in test [1] fell in the range of 1 to 10 µM; in test [2] it was 0.05 to 5 mM; in [3], 0.05 to 5 mM; in [4], 0.05 to 5 mM; in test [5], 0.05 to 5 mM; in test [6], 0.05 to 5 mM. Moreover, the IC50 in test [7] lay in the range of 0.05 to 5 mM; in [8], 1 to 10 µM; in test [9], 0.05 to 5 mM.

For the molecule `O=C1c2c([nH]c3c(O)cccc3c2=O)-c2cccn21` [Compound 445a, 5-Hydroxy-9H-pyrrolizino[1,2-b]quinoline-9,10(4H)-dione], the IC50 was in the range of 1 to 10 µM in [1]; 0.05 to 5 mM in test [2]; 0.05 to 5 mM in test [3]; 0.05 to 5 mM in [4]; 0.05 to 5 mM in test [5]; 0.05 to 5 mM in [6]. Besides, the IC50 was 0.05 to 5 mM in test [7], 1 to 10 µM in test [8] and 0.05 to 5 mM in test [9].

Consider `O=C1c2c(nc3c(O)cccc3c2O)-c2cccn21` [Compound 445b, 5,9-dihydroxy-10H-pyrrolizino[1,2-b]quinolin-10-one], for which the IC50 is 1 to 10 µM in test [1]; 0.05 to 5 mM in [2]; 0.05 to 5 mM in test [3]; 0.05 to 5 mM in test [4]; 0.05 to 5 mM in test [5]; 0.05 to 5 mM in [6]. The IC50 lay within 0.05 to 5 mM in [7], 1 to 10 µM in test [8] and 0.05 to 5 mM in test [9].

Turning to `COc1cccc2c(=O)c3c([nH]c12)-c1cccn1C3=O` [Compound 446a, 5-Methoxy-9H-pyrrolizino[1,2-b]quinoline-9,10(4H)-dione], the concentration for half-maximal inhibition (IC50) in [1] was in the range of 0.1 to 1 µM; in [2], 0.05 to 5 mM; in test [3], 0.05 to 5 mM; in [4] it was 0.05 to 5 mM; in [5] it was 0.05 to 5 mM; in test [6], 0.05 to 5 mM. For the same molecule, the 50% inhibitory concentration (IC50) in test [7] fell in the range of 0.05 to 5 mM; in [8] it was 1 to 10 µM; in test [9], 0.05 to 5 mM.

For `COc1cccc2c(O)c3c(nc12)-c1cccn1C3=O` [Compound 446b, 9-hydroxy-5-methoxy-10H-pyrrolizino[1,2-b]quinolin-10-one], the IC50 in test [1] lay within 0.001 to 0.1 µM; in test [2], 0.05 to 5 mM; in test [3] it was 0.05 to 5 mM; in test [4] it was 0.05 to 5 mM; in [5], 0.05 to 5 mM; in [6], 0.05 to 5 mM. For the same molecule, the IC50 lay in the range of 0.05 to 5 mM in [7], 1 to 10 µM in [8] and 0.05 to 5 mM in test [9].

As for `N#Cc1cccc2c(=O)c3c([nH]c12)-c1cccn1C3=O` [Compound 447a, 9,10-Dioxo-4,10-dihydro-9H-pyrrolizino[1,2-b]quinoline-5-carbonitrile], the IC50 in [1] is 0.1 to 1 µM; in [2], 0.05 to 5 mM; in test [3], 0.05 to 5 mM; in [4] it was 0.05 to 5 mM; in test [5], 0.05 to 5 mM; in test [6], 0.05 to 5 mM. The IC50 was 0.05 to 5 mM in [7], 0.1 to 1 µM in [8] and less than 0.05 mM in test [9].

For `N#Cc1cccc2c(O)c3c(nc12)-c1cccn1C3=O` [Compound 447b, 9-hydroxy-10-oxo-10H-pyrrolizino[1,2-b]quinoline-5-carbonitrile], the IC50 was 0.1 to 1 µM in [1]; 0.05 to 5 mM in test [2]; 0.05 to 5 mM in [3]; 0.05 to 5 mM in test [4]; 0.05 to 5 mM in test [5]; 0.05 to 5 mM in [6]. In addition, the values for the IC50 in [7], in test [8] and in [9] were 0.05 to 5 mM, 1 to 10 µM and 0.05 to 5 mM, respectively.

With `O=C1c2c([nH]c3c(C(F)(F)F)cccc3c2=O)-c2cccn21` [Compound 448a, 5-(Trifluoromethyl)-9H-pyrrolizino[1,2-b]quinoline-9,10(4H)-dione], the IC50 in test [1] is 1 to 10 µM; in [2], 0.05 to 5 mM; in [3], 0.05 to 5 mM; in test [4] it was 0.05 to 5 mM; in test [5], 0.05 to 5 mM; in [6] it was 0.05 to 5 mM. Also, the IC50 in test [7] is 0.05 to 5 mM; in test [8], 0.1 to 1 µM; in test [9], 0.05 to 5 mM.

With `O=C1c2c(nc3c(C(F)(F)F)cccc3c2O)-c2cccn21` [Compound 448b, 9-hydroxy-5-(trifluoromethyl)-10H-pyrrolizino[1,2-b]quinolin-10-one], the IC50 in [1] fell in the range of 1 to 10 µM; in test [2], 0.05 to 5 mM; in test [3], 0.05 to 5 mM; in test [4], 0.05 to 5 mM; in [5], 0.05 to 5 mM; in test [6], 0.05 to 5 mM. Moreover, the figures for the half-maximal inhibitory concentration (IC50) in test [7], in [8] and in test [9] were 0.05 to 5 mM, 1 to 10 µM and less than 0.05 mM, respectively.

With `O=C1c2c(n(Cc3cccc(F)c3)c3c(F)cccc3c2=O)-c2cccn21` [Compound 458a, 5-Fluoro-4-(3-fluorobenzyl)-9H-pyrrolizino[1,2-b]quinoline-9,10(4H)-dione], the IC50 in test [1] was 0.1 to 1 µM; in test [2], 0.05 to 5 mM; in test [3], 0.05 to 5 mM; in [4], 0.05 to 5 mM; in [5], 0.05 to 5 mM; in [6], less than 0.05 mM. Further, the IC50 in test [7] lay within 0.05 to 5 mM; in test [8], 1 to 10 µM; in [9], 0.05 to 5 mM.

As for `O=C1c2c(nc3c(F)cccc3c2OCc2cccc(F)c2)-c2cccn21` [Compound 458b, 5-fluoro-9-((3-fluorobenzyl)oxy)-10H-pyrrolizino[1,2-b]quinolin-10-one], the IC50 in test [1] was 1 to 10 µM; in test [2], 0.05 to 5 mM; in [3] it was 0.05 to 5 mM; in test [4], 0.05 to 5 mM; in test [5], 0.05 to 5 mM; in test [6], 0.05 to 5 mM. Further, the IC50 in [7] fell in the range of 0.05 to 5 mM; in test [8], 1 to 10 µM; in test [9], 0.05 to 5 mM.

With `N#Cc1cccc2c1c(=O)c1c(n2Cc2ccc(F)cc2)-c2cccn2C1=O` [Compound 462a, 4-(4-Fluorobenzyl)-9,10-dioxo-4,10-dihydro-9H-pyrrolizino[1,2-b]quinoline-8-carbonitrile], the IC50 in [1] was 0.1 to 1 µM; in test [2] it was 0.05 to 5 mM; in [3] it was 0.05 to 5 mM; in test [4] it was 0.05 to 5 mM; in test [5] it was 0.05 to 5 mM; in test [6], less than 0.05 mM. Moreover, the IC50 in [7] was in the range of 0.05 to 5 mM; in test [8] it was 1 to 10 µM; in test [9], 0.05 to 5 mM.

On to `N#Cc1cccc2nc3c(c(OCc4ccc(F)cc4)c12)C(=O)n1cccc1-3` [Compound 462b, 9-((4-fluorobenzyl)oxy)-10-oxo-10H-pyrrolizino[1,2-b]quinoline-8-carbonitrile], for which the IC50 fell in the range of 0.1 to 1 µM in test [1]; 0.05 to 5 mM in [2]; 0.05 to 5 mM in test [3]; 0.05 to 5 mM in test [4]; 0.05 to 5 mM in test [5]; 0.05 to 5 mM in test [6]. The IC50 in [7] lay in the range of 0.05 to 5 mM; in test [8], 1 to 10 µM; in test [9], 0.05 to 5 mM.

Regarding `O=C1c2c([nH]c3cccc(Cl)c3c2=O)-c2cccn21` [Compound 464a, 8-Chloro-9H-pyrrolizino[1,2-b]quinoline-9,10(4H)-dione], the IC50 in [1] was 1 to 10 µM; in test [2] it was 0.05 to 5 mM; in test [3] it was 0.05 to 5 mM; in [4], less than 0.05 mM; in [5], 0.05 to 5 mM; in [6] it was less than 0.05 mM. Also, the IC50 in test [7] is 0.05 to 5 mM; in test [8], 1 to 10 µM; in test [9], 0.05 to 5 mM.
